Holding throughout (format): biochemical
In experiment [1] the target is Thermus aquaticus T-Rex FRET fusion, initial construct #9, mKOk-Rex(A)-cpmEGFP(145/146)-Rex(B), SEQ ID NO: 169 (Thermus aquaticus, UniProt Q9X2V5, E116G/F189I/K117M/K204T/K47E/R46D/R58D/S30A/Y98W). The experiment can be described thus: FRET response (emission spectra) of purified initial construct #9 in absence or presence of 40 uM NADH. On the set-up: key: Good response: Constructs with very clear and robust spectra separation; Poor response: those with noticeable but small spectra separation; No response: those having no spectra separation. The protocol:
(§1) 16 initial FRET constructs (See Table 3) were constructed using expression vector pET28c with a T7 promoter and lac operator and expressed in E. coli. Cells were collected and lysed using a commercially-available lysis buffer. Proteins of interest were isolated from the lysates using Ni-NTA magnetic beads. Eluted proteins were subjected to buffer exchange and final protein concentrating. To test performance of the initial FRET constructs, their emission spectra was recorded on a plate reader in absence or presence of 40 uM NADH. Resulting emission spectra with or without the ligand were normalized and overlaid for each construct. Constructs with very clear and robust spectra separation were labeled as having “good response”, those with noticeable but small spectra separation were labeled as having “poor response”, and finally those having no spectra separation were labeled as having “no response”.

In experiment [2] the target is Thermus aquaticus T-Rex FRET fusion, initial construct #10, Rex(A)-cpmEGFP(145/146)-Rex(B)-mKOk, SEQ ID NO: 170 (Thermus aquaticus, UniProt Q9X2V5, E116G/F189I/K117M/K204T/K47E/R46D/R58D/S30A/Y98W). The experiment can be described thus: FRET response (emission spectra) of purified initial construct #10 in absence or presence of 40 uM NADH. Further details: key: Good response: Constructs with very clear and robust spectra separation; Poor response: those with noticeable but small spectra separation; No response: those having no spectra separation. As to the method: as §1

The target in experiment [3] is Thermus aquaticus T-Rex FRET fusion, initial construct #16, Rex(A)-mKOk-Rex(B)-mEGFP, SEQ ID NO: 176 (Thermus aquaticus, UniProt Q9X2V5, E116G/F189I/K117M/K204T/K47E/R46D/R58D/S30A/Y98W). The experiment can be described thus: FRET response (emission spectra) of purified initial construct #16 in absence or presence of 40 uM NADH. Further details: key: Good response: Constructs with very clear and robust spectra separation; Poor response: those with noticeable but small spectra separation; No response: those having no spectra separation. As to the method:
as §1

The target in experiment [4] is Thermus aquaticus T-Rex FRET biosensor construct #14 (Rex(A)-mEGFP-Rex(B)-mKOk, SEQ ID NO: 174), library variant 1-A7, SEQ ID NO: 20 (Thermus aquaticus, UniProt Q9X2V5, E116G/F189I/K117M/K47E/R46D/R58D/S30A/Y98W). The experiment can be described thus: Signal window in bacterial lysates, FRET ratio in presence or absence of 200 uM NADH (Table 2). As to conditions: clone 1-A7, SEQ ID NO: 20. From the text:
(§2) In specific embodiments, the fusion protein comprises the amino acid sequence selected from the group consisting of SEQ ID NO: 13-93, 95-154, and 191-193; the sequences are provided in Table 2 and the examples.
(§3) Protein library DNA was generated following cloning that assembled pieces of DNA that were generated using PCRs with mixtures of primers. DNA was transformed into E. coli, and the first round of protein library expression was done in bacterial colonies on agar plates. The colonies, each expressing different library members, were imaged, and then classified into groups based on their FRET ratio signal. Colonies from different groups were inoculated into 96-deep-well plates for further protein expression in liquid culture. The original construct that was used to generate the library (e.g., construct #14 in Table 2) was also inoculated on the same plates, along with non-expressing bacteria. The latter served as a negative control.

Experiment [5] addresses Thermus aquaticus T-Rex FRET biosensor construct #14 (Rex(A)-mEGFP-Rex(B)-mKOk, SEQ ID NO: 174), library variant 1-F8, SEQ ID NO: 13 (Thermus aquaticus, UniProt Q9X2V5, E116G/F189I/K117M/K47E/R46D/R58D/S30A/Y98W). Described as above. The following applies: clone 1-F8, SEQ ID NO: 13.
Description: as §2, §3

The target in experiment [6] is Thermus aquaticus T-Rex FRET biosensor construct #14 (Rex(A)-mEGFP-Rex(B)-mKOk, SEQ ID NO: 174), library variant 1-G8, SEQ ID NO: 16 (Thermus aquaticus, UniProt Q9X2V5, E116G/F189I/K117M/K47E/R46D/R58D/S30A/Y98W). The experiment is described as above. The following applies: clone 1-G8, SEQ ID NO: 16.
Description: as §2, §3

The target in experiment [7] is Thermus aquaticus T-Rex FRET biosensor construct #14 (Rex(A)-mEGFP-Rex(B)-mKOk, SEQ ID NO: 174), library variant 2-F3, SEQ ID NO: 15 (Thermus aquaticus, UniProt Q9X2V5, E116G/F189I/K117M/K47E/R46D/R58D/S30A/Y98W). The experiment is described as above. As to conditions: clone 2-F3, SEQ ID NO: 15.
Description: as §2, §3

In experiment [8] the target is Thermus aquaticus T-Rex FRET biosensor construct #14 (Rex(A)-mEGFP-Rex(B)-mKOk, SEQ ID NO: 174), library variant 3-C8, SEQ ID NO: 14 (Thermus aquaticus, UniProt Q9X2V5, E116G/F189I/K117M/K47E/R46D/R58D/S30A/Y98W). The experiment is described as above. As to conditions: clone 3-C8, SEQ ID NO: 14.
Description: as §2, §3

For experiment [9], the target named is Thermus aquaticus T-Rex FRET biosensor construct #14 (Rex(A)-mEGFP-Rex(B)-mKOk, SEQ ID NO: 174), library variant 4-A2, SEQ ID NO: 19 (Thermus aquaticus, UniProt Q9X2V5, E116G/F189I/K117M/K47E/R46D/R58D/S30A/Y98W). The experiment is described as above. As to conditions: clone 4-A2, SEQ ID NO: 19.
Description: as §2, §3

Experiment [10] addresses Thermus aquaticus T-Rex FRET biosensor construct #14 (Rex(A)-mEGFP-Rex(B)-mKOk, SEQ ID NO: 174), library variant 4-D10, SEQ ID NO: 17 (Thermus aquaticus, UniProt Q9X2V5, E116G/F189I/K117M/K47E/R46D/R58D/S30A/Y98W). The description is as above. The following applies: clone 4-D10, SEQ ID NO: 17.
Description: as §2, §3

Experiment [11] has as its target Thermus aquaticus T-Rex FRET biosensor construct #14 (Rex(A)-mEGFP-Rex(B)-mKOk, SEQ ID NO: 174), library variant 4-F1, SEQ ID NO: 18 (Thermus aquaticus, UniProt Q9X2V5, E116G/F189I/K117M/K47E/R46D/R58D/S30A/Y98W). The experiment is described as above. The following applies: clone 4-F1, SEQ ID NO: 18.
Description: as §2, §3

`NC(=O)C1=CN([C@@H]2O[C@H](COP(=O)(O)OP(=O)(O)OC[C@H]3O[C@@H](n4cnc5c(N)ncnc54)[C@H](O)[C@@H]3O)[C@@H](O)[C@H]2O)C=CC1` [NADH]: the “FRET response to NADH” value in experiment [1] is listed as “No response”; in experiment [2], “Good response”; in experiment [3], “Good response”. The “Signal window (ex mode), measured in lysates” value in experiment [4] is 0.31; in experiment [5] it was 0.55; in [6], 0.34; in experiment [7] it was 0.34; in experiment [8], 0.4; in [9] it was 0.32. Besides, the “Signal window (ex mode), measured in lysates” value is 0.34 in [10] and 0.33 in [11].

For the origin of these results see patent publication US12338484B2, “FRET biosensor for detecting and reporting NAD+/NADH ratio changes” (Sartorius BioAnalytical Instruments, Inc., priority 2022, dated 2025).
